The text below walks through data of patent US20150283287A1, “METHODS AND COMPOSITIONS FOR WOUND HEALING” (IMBED BIOSCIENCES, INC., priority 2012, published 2015).

The structures appear in SMILES notation.

Data set [1] concerns incisional wounds. The conditions noted are these: in vivo; cited from earlier work.
Data set [2] has as its system P. aeruginosa (ATCC 27853) biofilms. The data set can be described thus: Inhibition of biofilm formation (crystal violet staining). Format: cell-based, Pseudomonas aeruginosa. The procedure: During the development of embodiments of the technology provided herein, experiments were conducted to determine the minimum concentration of Ga (e.g., as Ga(NO3)3) to inhibit biofilm formation. In particular, Ga was added to cultures of Pseudomonas aeruginosa in biofilm growth media (500 μL of 1% tryptic soy broth (TSB)) to test the inhibition of biofilm formation at the bottom of 48-well tissue culture plates.
Biofilm growth arising from suspensions of 10^6 CFU/ml P. aeruginosa (ATCC 27853) was quantified after 24, 48, and 72 hours by staining biofilms with crystal violet, following methods described previously (Brandenburg et al. Tryptophan Inhibits Biofilm Formation by Pseudomonas aeruginosa. Antimicrobial Agents and Chemotherapy. 2013; 57:1921-5).

Data set [3] deals with mammalian cells. The conditions noted are these: cited from earlier work.
Data set [4] relates to established biofilms. As to conditions: in TSB; cited from earlier work.

Turning to `CC1=C(/C=C/C(C)=C/C=C/C(C)=C/C(=O)O)C(C)(C)CCC1` [tretinoin], in data set [1], the Fibroblastic proliferation result is “increased” and the Production of collagen entry is “diminished”.

As to `O=[N+]([O-])[O-].O=[N+]([O-])[O-].O=[N+]([O-])[O-].[Ga+3]` [Ga^3+, Ga(NO3)3], the “Effect on free (planktonic) bacterial counts” value in data set [2] (25 μM) is listed as “not bactericidal”. The “Concentration in solution sufficient to completely inhibit biofilm formation” value in data set [2] (72 hours, 10^6 CFU/ml in 1% TSB) came out at 25 µM. The “Concentrations not cytotoxic to mammalian cells” value in data set [3] is given as “up to 1 mM”. The “Concentration that disperses established biofilms” value in data set [4] was 100 µM.
